This is an account of results in patent US20130040944A1, “MGLUR4 ALLOSTERIC POTENTIATORS, COMPOSITIONS, AND METHODS OF TREATING NEUROLOGICAL DYSFUNCTION” (VANDERBILT UNIVERSITY, priority 2009, published 2013).

In this assay the target is human mGluR4 (Homo sapiens, UniProt Q14833). Description: potentiation of human mGluR4 in transfected CHO cells, Ca2+-sensitive dye fluorescence, EC20 agonist. The settings on record: hEC50, human mGluR4 potentiation; unit inferred.

Structures are written as SMILES.

Sequence of human mGluR4 (Q14833 33-912): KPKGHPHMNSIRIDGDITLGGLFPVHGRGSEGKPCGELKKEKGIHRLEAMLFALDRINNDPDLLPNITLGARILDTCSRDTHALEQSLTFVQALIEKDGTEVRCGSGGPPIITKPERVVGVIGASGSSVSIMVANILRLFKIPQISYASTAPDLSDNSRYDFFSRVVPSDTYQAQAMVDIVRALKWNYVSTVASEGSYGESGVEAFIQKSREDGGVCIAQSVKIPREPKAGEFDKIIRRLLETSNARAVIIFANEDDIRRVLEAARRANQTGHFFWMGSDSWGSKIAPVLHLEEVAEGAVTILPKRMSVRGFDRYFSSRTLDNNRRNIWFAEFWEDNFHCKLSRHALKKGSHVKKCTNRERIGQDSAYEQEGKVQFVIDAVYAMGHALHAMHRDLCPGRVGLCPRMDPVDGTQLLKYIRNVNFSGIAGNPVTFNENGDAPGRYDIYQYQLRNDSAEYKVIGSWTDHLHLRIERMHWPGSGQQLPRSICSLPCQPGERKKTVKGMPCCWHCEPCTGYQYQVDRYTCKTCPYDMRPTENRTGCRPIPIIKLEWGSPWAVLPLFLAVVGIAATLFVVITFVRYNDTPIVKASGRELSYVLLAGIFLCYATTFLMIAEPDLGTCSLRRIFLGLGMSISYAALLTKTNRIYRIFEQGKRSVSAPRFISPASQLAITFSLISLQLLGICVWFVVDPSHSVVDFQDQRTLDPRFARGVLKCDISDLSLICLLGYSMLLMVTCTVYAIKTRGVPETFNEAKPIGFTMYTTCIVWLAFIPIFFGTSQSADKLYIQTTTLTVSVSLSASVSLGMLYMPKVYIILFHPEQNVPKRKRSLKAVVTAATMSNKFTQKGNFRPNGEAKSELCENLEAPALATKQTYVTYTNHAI

For the compound `Cc1ccc(S(=O)(=O)n2ccc(NC(=O)c3ccccn3)c2)cc1Cl` [Example 112, N-(1-((3-chloro-4-methylphenyl)sulfonyl)-1H-pyrrol-3-yl)picolinamide], the EC50 was found to be 0.129 µM. In the case of `Cc1cc(S(=O)(=O)n2ccc(NC(=O)c3ccccn3)c2)c(F)cc1Cl` [Example 113, N-(1-((4-chloro-2-fluoro-5-methylphenyl)sulfonyl)-1H-pyrrol-3-yl)picolinamide] it was 0.346 µM; in that of `Cc1cc(C)c(S(=O)(=O)n2ccc(NC(=O)c3ccccn3)c2)cc1Cl` [Example 114, N-(1-((5-chloro-2,4-dimethylphenyl)sulfonyl)-1H-pyrrol-3-yl)picolinamide], 22.9 µM. In the case of `Cc1c(F)cccc1S(=O)(=O)n1ccc(NC(=O)c2ccccn2)c1` [Example 115, N-(1-((3-fluoro-2-methylphenyl)sulfonyl)-1H-pyrrol-3-yl)picolinamide] it was 0.393 µM; in that of `Cc1c(Cl)cccc1S(=O)(=O)n1ccc(NC(=O)c2ccccn2)c1` [Example 116, N-(1-((3-chloro-2-methylphenyl)sulfonyl)-1H-pyrrol-3-yl)picolinamide], 0.286 µM. Under `O=C(Nc1ccn(S(=O)(=O)c2ccc(Cl)nc2)c1)c1ccccn1` [Example 118, N-(1-((6-chloropyridin-3-yl)sulfonyl)-1H-pyrrol-3-yl)picolinamide] stands 0.217 µM. For `O=C(Nc1ccn(S(=O)(=O)c2ccc(Cl)cn2)c1)c1ccccn1` [Example 121, N-(1-((5-chloropyridin-2-yl)sulfonyl)-1H-pyrrol-3-yl)picolinamide], the EC50 stood at 0.162 µM. Under `CCc1ccc(S(=O)(=O)n2ccc(NC(=O)c3ccccn3)c2)cc1` [Example 122, N-(1-((4-ethylphenyl)sulfonyl)-1H-pyrrol-3-yl)picolinamide] stands 0.133 µM; under `O=C(Nc1ccn(S(=O)(=O)c2ccco2)c1)c1ccccn1` [Example 123, N-(1-(furan-2-ylsulfonyl)-1H-pyrrol-3-yl)picolinamide], 0.686 µM. In the case of `O=C(Nc1ccn(S(=O)(=O)c2cccc(Cl)c2F)c1)c1ccccn1` [Example 124, N-(1-((3-chloro-2-fluorophenyl)sulfonyl)-1H-pyrrol-3-yl)picolinamide] it was 0.084 µM. Under `O=C(Nc1ccn(S(=O)(=O)c2ccoc2)c1)c1ccccn1` [Example 125, N-(1-(furan-3-ylsulfonyl)-1H-pyrrol-3-yl)picolinamide] stands 1.49 µM; under `O=C(Nc1ccn(S(=O)(=O)c2cc(F)c(F)c(F)c2)c1)c1ccccn1` [Example 126, N-(1-((3,4,5-trifluorophenyl)sulfonyl)-1H-pyrrol-3-yl)picolinamide], 0.276 µM.

With `Cc1nc(C)c(S(=O)(=O)n2ccc(NC(=O)c3ccccn3)c2)s1` [Example 127, N-(1-((2,4-dimethylthiazol-5-yl)sulfonyl)-1H-pyrrol-3-yl)picolinamide], the EC50 was determined as 2.95 µM. As for `O=C(Nc1ccn(S(=O)(=O)c2ccc(F)c(Cl)c2)c1)c1ccccn1` [Example 128, N-(1-((3-chloro-4-fluorophenyl)sulfonyl)-1H-pyrrol-3-yl)picolinamide], the EC50 was determined as 0.64 µM. In the case of `COc1ccc(S(=O)(=O)n2ccc(NC(=O)c3ccccn3)c2)cc1` [Example 129, N-(1-((4-methoxyphenyl)sulfonyl)-1H-pyrrol-3-yl)picolinamide] it was 0.107 µM; in that of `N#Cc1ccc(S(=O)(=O)n2ccc(NC(=O)c3ccccn3)c2)cc1` [Example 130, N-(1-((4-cyanophenyl)sulfonyl)-1H-pyrrol-3-yl)picolinamide], 0.22 µM; in that of `O=C(Nc1ccn(S(=O)(=O)c2ccc(Cl)s2)c1)c1ccccn1` [Example 131, N-(1-((5-chlorothiophen-2-yl)sulfonyl)-1H-pyrrol-3-yl)picolinamide], 1.04 µM. Under `O=C(Nc1ccn(S(=O)(=O)c2ccsc2)c1)c1ccccn1` [Example 132, N-(1-(thiophen-3-ylsulfonyl)-1H-pyrrol-3-yl)picolinamide] stands 0.413 µM. Under `O=C(Nc1ccn(S(=O)(=O)c2ccc3c(c2)OCO3)c1)c1ccccn1` [Example 133, N-(1-(benzo[d][1,3]dioxol-5-ylsulfonyl)-1H-pyrrol-3-yl)picolinamide] stands 0.11 µM; under `O=C(Nc1ccn(S(=O)(=O)c2cccs2)c1)c1ccccn1` [Example 134, N-(1-(thiophen-2-ylsulfonyl)-1H-pyrrol-3-yl)picolinamide], 0.08 µM; under `Cc1ccc(S(=O)(=O)n2ccc(NC(=O)c3ccccn3)c2)s1` [Example 135, N-(1-((5-methylthiophen-2-yl)sulfonyl)-1H-pyrrol-3-yl)picolinamide], 0.0887 µM. With `O=C(Nc1ccn(S(=O)(=O)c2cnc3ccccc3c2)c1)c1ccccn1` [Example 136, N-(1-(quinolin-3-ylsulfonyl)-1H-pyrrol-3-yl)picolinamide], the EC50 is 0.253 µM. Under `O=C(Nc1ccn(S(=O)(=O)c2cccnc2Cl)c1)c1ccccn1` [Example 137, N-(1-((2-chloropyridin-3-yl)sulfonyl)-1H-pyrrol-3-yl)picolinamide] stands 3.79 µM; under `O=C(Nc1ccn(S(=O)(=O)c2ccc(Cl)cc2F)c1)c1ccccn1` [Example 138, N-(1-((4-chloro-2-fluorophenyl)sulfonyl)-1H-pyrrol-3-yl)picolinamide], 0.243 µM; under `O=C(Nc1ccn(S(=O)(=O)c2ccc(F)c(F)c2F)c1)c1ccccn1` [Example 139, N-(1-((2,3,4-trifluorophenyl)sulfonyl)-1H-pyrrol-3-yl)picolinamide], 0.301 µM. In the case of `COc1ccc(S(=O)(=O)n2ccc(NC(=O)c3ccccn3)c2)cn1` [Example 140, N-(1-((6-methoxypyridin-3-yl)sulfonyl)-1H-pyrrol-3-yl)picolinamide] it was 0.116 µM.

Take `Cc1noc(C)c1S(=O)(=O)n1ccc(NC(=O)c2ccccn2)c1` [Example 141, N-(1-((3,5-dimethylisoxazol-4-yl)sulfonyl)-1H-pyrrol-3-yl)picolinamide]: the EC50 is 8.32 µM. Under `Cn1cc(S(=O)(=O)n2ccc(NC(=O)c3ccccn3)c2)cn1` [Example 143, N-(1-((1-methyl-1H-pyrazol-4-yl)sulfonyl)-1H-pyrrol-3-yl)picolinamide] stands 4.79 µM; under `O=C(Nc1ccn(S(=O)(=O)c2ccc(N3CCOCC3)nc2)c1)c1ccccn1` [Example 144, N-(1-((6-morpholinopyridin-3-yl)sulfonyl)-1H-pyrrol-3-yl)picolinamide], 1.07 µM.

For the compound `CN1CCOc2cc(S(=O)(=O)n3ccc(NC(=O)c4ccccn4)c3)ccc21` [Example 146, N-(1-((4-methyl-3,4-dihydro-2H-benzo[b][1,4]oxazin-7-yl)sulfonyl)-1H-pyrrol-3-yl)picolinamide], the EC50 came to 0.144 µM. Under `O=C(Nc1ccn(S(=O)(=O)c2ccc(CCl)cc2)c1)c1ccccn1` [Example 147, N-(1-((4-(chloromethyl)phenyl)sulfonyl)-1H-pyrrol-3-yl)picolinamide] stands 0.225 µM; under `O=C(Nc1ccn(S(=O)(=O)c2ccc3c(c2)OCCCO3)c1)c1ccccn1` [Example 148, N-(1-((3,4-dihydro-2H-benzo[b][1,4]dioxepin-7-yl)sulfonyl)-1H-pyrrol-3-yl)picolinamide], 0.0411 µM; under `CC1(C)CCc2cc(S(=O)(=O)n3ccc(NC(=O)c4ccccn4)c3)ccc2O1` [Example 149, N-(1-((2,2-dimethylchroman-6-yl)sulfonyl)-1H-pyrrol-3-yl)picolinamide], 0.351 µM.

Turning to `O=C(Nc1ccn(S(=O)(=O)c2ccc3occc3c2)c1)c1ccccn1` [Example 150, N-(1-(benzofuran-5-ylsulfonyl)-1H-pyrrol-3-yl)picolinamide], the EC50 worked out at 0.0843 µM. Under `Cc1ccc(S(=O)(=O)n2cc(NC(=O)c3ccccn3)cc2C)cc1` [Example 151, N-(5-methyl-1-tosyl-1H-pyrrol-3-yl)picolinamide] stands 3.81 µM; under `O=C1CCc2ccc(S(=O)(=O)n3ccc(NC(=O)c4ccccn4)c3)cc2N1` [Example 152, N-(1-((2-oxo-1,2,3,4-tetrahydroquinolin-7-yl)sulfonyl)-1H-pyrrol-3-yl)picolinamide], 0.917 µM; under `COC(=O)c1ccc(S(=O)(=O)n2ccc(NC(=O)c3ccccn3)c2)cc1` [Example 153, Methyl 4-((3-(picolinamido)-1H-pyrrol-1-yl)sulfonyl)benzoate], 0.285 µM. Take `O=C(Nc1ccn(S(=O)(=O)c2ccc(N3CCCC3=O)cc2)c1)c1ccccn1` [Example 154, N-(1-((4-(2-oxopyrrolidin-1-yl)phenyl)sulfonyl)-1H-pyrrol-3-yl)picolinamide]: the EC50 amounted to 0.543 µM. Turning to `O=C(O)c1ccc(S(=O)(=O)n2ccc(NC(=O)c3ccccn3)c2)cc1` [Example 155, 4-((3-(picolinamido)-1H-pyrrol-1-yl)sulfonyl)benzoic acid], the EC50 was 6.38 µM. Turning to `O=C(Nc1ccn(S(=O)(=O)c2ccc3c(c2)OCCO3)c1)c1ccccn1` [Example 156, N-(1-((2,3-dihydrobenzo[b][1,4]dioxin-6-yl)sulfonyl)-1H-pyrrol-3-yl)picolinamide], the EC50 amounted to 0.0453 µM.

On to `Cc1ccc(S(=O)(=O)c2cc(NC(=O)c3ccccn3)cn2C)cc1` [Example 157, N-(1-methyl-5-tosyl-1H-pyrrol-3-yl)picolinamide], for which the EC50 was 3.68 µM.

`O=C(Nc1ccn(S(=O)(=O)c2ccc3[nH]c(=O)sc3c2)c1)c1ccccn1` [Example 158, N-(1-((2-oxo-2,3-dihydrobenzo[d]thiazol-6-yl)sulfonyl)-1H-pyrrol-3-yl)picolinamide]: the concentration giving a half-maximal response (EC50) stood at 0.55 µM. In the case of `Cn1ccc(S(=O)(=O)n2ccc(NC(=O)c3ccccn3)c2)n1` [Example 159, N-(1-((1-methyl-1H-pyrazol-3-yl)sulfonyl)-1H-pyrrol-3-yl)picolinamide] it was 0.931 µM; in that of `O=C(Nc1ccn(S(=O)(=O)c2ccccn2)c1)c1ccccn1` [Example 160, N-(1-(pyridin-2-ylsulfonyl)-1H-pyrrol-3-yl)picolinamide], 1.49 µM.
